Experimental data as given in PubChem BioAssay (NCI).
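Where inhibition never reached the appropriate level, the endpoint shown equals the highest concentration tested. Otherwise, values were interpolated linearly from a five-concentration, 48-hour dose response in 96-well plates. GI50 marks 50% less growth. TGI: concentration producing complete growth inhibition.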

Columns and labels:
Experiment in all cases: NCI-60 cell line screen, 48 h
SK-MEL-2 melanoma = test system: SK-MEL-2 melanoma
DU-145 prostate = test system: DU-145 prostate
UACC-257 melanoma = test system: UACC-257 melanoma
COLO 205 colon = test system: COLO 205 colon
UACC-62 melanoma = test system: UACC-62 melanoma
SK-OV-3 ovarian = test system: SK-OV-3 ovarian
BT-549 breast = test system: BT-549 breast
HCT-15 colon = test system: HCT-15 colon
NCI-H23 lung = test system: NCI-H23 lung
SK-MEL-5 melanoma = test system: SK-MEL-5 melanoma
KM12 colon = test system: KM12 colon
OVCAR-8 ovarian = test system: OVCAR-8 ovarian
CAKI-1 renal = test system: CAKI-1 renal
M14 melanoma = test system: M14 melanoma
786-0 renal = test system: 786-0 renal
T-47D breast = test system: T-47D breast
A549 NSCLC = test system: A549 NSCLC
NCI-H460 lung = test system: NCI-H460 lung
SF-295 CNS = test system: SF-295 CNS
MDA-MB-231 breast = test system: MDA-MB-231 breast
NCI/ADR-RES ovarian = test system: NCI/ADR-RES ovarian
MCF7 breast = test system: MCF7 breast
MDA-MB-435 = test system: MDA-MB-435
HCT-116 colon = test system: HCT-116 colon
HOP-62 NSCLC = test system: HOP-62 NSCLC
NCI-H226 lung = test system: NCI-H226 lung
HCC-2998 colon = test system: HCC-2998 colon
PC-3 prostate = test system: PC-3 prostate
SF-268 CNS = test system: SF-268 CNS
RPMI-8226 leukemia = test system: RPMI-8226 leukemia
LOX IMVI melanoma = test system: LOX IMVI melanoma
CCRF-CEM leukemia = test system: CCRF-CEM leukemia
U251 CNS = test system: U251 CNS
TK-10 renal = test system: TK-10 renal
A498 renal = test system: A498 renal
SW-620 colon = test system: SW-620 colon
HOP-92 NSCLC = test system: HOP-92 NSCLC
RXF 393 renal = test system: RXF 393 renal
SNB-19 CNS = test system: SNB-19 CNS
MOLT-4 leukemia = test system: MOLT-4 leukemia
SK-MEL-28 melanoma = test system: SK-MEL-28 melanoma
OVCAR-4 ovarian = test system: OVCAR-4 ovarian
UO-31 renal = test system: UO-31 renal
EKVX NSCLC = test system: EKVX NSCLC
SNB-75 CNS = test system: SNB-75 CNS
ACHN renal = test system: ACHN renal
OVCAR-5 ovarian = test system: OVCAR-5 ovarian
OVCAR-3 ovarian = test system: OVCAR-3 ovarian
HL-60(TB) leukemia = test system: HL-60(TB) leukemia

## COc1cc(/C=C2\C[C@H]3[C@@H]4CCc5cc(OCCN6CCCC6)ccc5[C@H]4CC[C@]3(C)C2=O)cc(OC)c1OC
SK-MEL-2 melanoma
  TGI: 5.34 µM
DU-145 prostate
  TGI: 3.56 µM
UACC-257 melanoma
  TGI: 4.89 µM
COLO 205 colon
  TGI: 2.81 µM
UACC-62 melanoma
  TGI: 7.22 µM
SK-OV-3 ovarian
  TGI: 8.3 µM
BT-549 breast
  TGI: > 100 µM
HCT-15 colon
  TGI: 3.77 µM
NCI-H23 lung
  TGI: 7.4 µM
SK-MEL-5 melanoma
  TGI: 2.86 µM
KM12 colon
  TGI: 3.36 µM

## CN(C)C(=O)C(F)(F)C(c1ccc(F)cc1)C1C(=O)N(C)C(=O)N(C)C1=O (stereo unspecified)
OVCAR-8 ovarian
  TGI: > 100 µM
SK-MEL-2 melanoma
  TGI: > 100 µM
DU-145 prostate
  TGI: > 100 µM
CAKI-1 renal
  TGI: > 100 µM
M14 melanoma
  TGI: > 100 µM
UACC-257 melanoma
  TGI: > 100 µM
786-0 renal
  TGI: > 100 µM
T-47D breast
  TGI: > 100 µM
A549 NSCLC
  TGI: > 100 µM
NCI-H460 lung
  TGI: > 100 µM
SF-295 CNS
  TGI: > 100 µM
MDA-MB-231 breast
  TGI: > 100 µM
NCI/ADR-RES ovarian
  TGI: > 100 µM
MCF7 breast
  TGI: > 100 µM
MDA-MB-435
  TGI: > 100 µM
HCT-116 colon
  TGI: > 100 µM
COLO 205 colon
  TGI: > 100 µM
UACC-62 melanoma
  TGI: > 100 µM
HOP-62 NSCLC
  TGI: > 100 µM
NCI-H226 lung
  TGI: > 100 µM
HCC-2998 colon
  TGI: > 100 µM
SK-OV-3 ovarian
  TGI: > 100 µM
PC-3 prostate
  TGI: > 100 µM
SF-268 CNS
  TGI: > 100 µM
RPMI-8226 leukemia
  TGI: > 100 µM
BT-549 breast
  TGI: > 100 µM
LOX IMVI melanoma
  TGI: > 100 µM
HCT-15 colon
  TGI: > 100 µM
CCRF-CEM leukemia
  TGI: > 100 µM
U251 CNS
  TGI: > 100 µM
TK-10 renal
  TGI: > 100 µM
A498 renal
  TGI: > 100 µM
SW-620 colon
  TGI: > 100 µM
HOP-92 NSCLC
  TGI: > 100 µM
RXF 393 renal
  TGI: > 100 µM
SNB-19 CNS
  TGI: > 100 µM
MOLT-4 leukemia
  TGI: > 100 µM
SK-MEL-28 melanoma
  TGI: > 100 µM
NCI-H23 lung
  TGI: > 100 µM
OVCAR-4 ovarian
  TGI: > 100 µM
UO-31 renal
  TGI: > 100 µM
EKVX NSCLC
  TGI: > 100 µM
SNB-75 CNS
  TGI: > 100 µM
ACHN renal
  TGI: > 100 µM
OVCAR-5 ovarian
  TGI: > 100 µM
OVCAR-3 ovarian
  TGI: > 100 µM
SK-MEL-5 melanoma
  TGI: > 100 µM
KM12 colon
  TGI: > 100 µM

## O=C(NCc1cccc(CNC(=O)Nc2nc3ccccc3[nH]2)c1)Nc1nc2ccccc2[nH]1
SK-MEL-2 melanoma
  GI50: 2.36 µM
  TGI: 7.1 µM
CAKI-1 renal
  GI50: > 100 µM
  TGI: > 100 µM
T-47D breast
  GI50: 3.33 µM
  TGI: > 100 µM
NCI/ADR-RES ovarian
  GI50: > 100 µM
  TGI: > 100 µM
HOP-62 NSCLC
  GI50: 1.95 µM
  TGI: 4.92 µM
HCT-15 colon
  GI50: > 100 µM
  TGI: > 100 µM
A498 renal
  GI50: 2.07 µM
  TGI: 5.11 µM
HOP-92 NSCLC
  GI50: 1.25 µM
  TGI: 3.26 µM
HL-60(TB) leukemia
  GI50: > 100 µM
  TGI: > 100 µM
SNB-75 CNS
  GI50: 1.58 µM
  TGI: 4.18 µM
ACHN renal
  GI50: 4.16 µM
  TGI: > 100 µM
